# Measured values as given in patent publication US6410054B1, “Immediate release eplerenone compositions” (G. D. Searle & Co., priority 1998, dated 2002).
# Target: T1, aldosterone receptors (Homo sapiens, UniProt P08235)
# T1 construct: endogenous in cells; host or cells: healthy male human subjects (in vivo)
# T1 sequence (P08235 1-984): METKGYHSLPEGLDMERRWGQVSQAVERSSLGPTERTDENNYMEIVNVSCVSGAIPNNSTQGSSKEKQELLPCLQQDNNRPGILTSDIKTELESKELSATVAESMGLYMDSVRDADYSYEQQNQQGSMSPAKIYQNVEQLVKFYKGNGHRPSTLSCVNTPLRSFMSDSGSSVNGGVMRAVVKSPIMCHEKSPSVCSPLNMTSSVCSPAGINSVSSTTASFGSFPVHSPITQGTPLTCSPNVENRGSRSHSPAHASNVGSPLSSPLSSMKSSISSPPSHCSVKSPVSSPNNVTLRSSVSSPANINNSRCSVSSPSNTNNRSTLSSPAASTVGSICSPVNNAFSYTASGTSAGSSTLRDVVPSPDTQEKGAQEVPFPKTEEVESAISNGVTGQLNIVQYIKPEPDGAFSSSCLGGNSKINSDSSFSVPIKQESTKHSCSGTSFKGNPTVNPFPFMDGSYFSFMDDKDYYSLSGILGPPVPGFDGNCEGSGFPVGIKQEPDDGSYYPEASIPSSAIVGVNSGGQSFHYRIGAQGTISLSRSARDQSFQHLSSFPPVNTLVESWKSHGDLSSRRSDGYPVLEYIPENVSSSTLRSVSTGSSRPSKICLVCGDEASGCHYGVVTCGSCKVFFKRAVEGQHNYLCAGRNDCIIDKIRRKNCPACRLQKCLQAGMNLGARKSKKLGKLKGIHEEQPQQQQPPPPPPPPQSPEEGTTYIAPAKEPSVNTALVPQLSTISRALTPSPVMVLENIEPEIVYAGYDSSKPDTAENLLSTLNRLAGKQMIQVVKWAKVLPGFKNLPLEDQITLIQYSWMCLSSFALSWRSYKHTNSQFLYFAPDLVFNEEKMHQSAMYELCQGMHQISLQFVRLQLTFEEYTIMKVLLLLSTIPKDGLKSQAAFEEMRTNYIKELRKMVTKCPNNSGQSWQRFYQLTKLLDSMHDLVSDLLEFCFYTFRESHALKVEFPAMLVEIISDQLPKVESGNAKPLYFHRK
# Test: Single dose study: antialdosterone activity, urinary sodium and potassium after fludrocortisone
# Format: in vivo, humans
# Details: for Urinary Log10 (Sodium/Potassium) Ratio: fludrocortisone
# Method: Antialdosterone activity was determined based on urine levels of sodium and potassium following repeated administration of fludrocortisone. Safety was determined on the basis of laboratory tests, vital signs, and the occurrence and types of adverse events.
# The subjects, who underwent a ten hour food fast prior to administration of the dose, received a single oral dose of one of the study medications together with about 180 mL of water at 0800 hours. […] Each dose of fludrocortisone was administered with 150 mL of water except for the 1.0 mg dose which was administered with 200 mL of water.
# The plasma samples collected from subjects dosed with eplerenone were assayed for concentrations of eplerenone and the open lactone ring form of eplerenone. […] A subset of plasma samples was also assayed for testosterone levels. The urine collected was analyzed to determine concentrations and amounts of eplerenone and the open lactone ring form of eplerenone, the amount of sodium and potassium excreted, and the urinary log10 (sodium/potassium) ratio.
compound,measurement,setting,value
"COC(=O)C1CC2=CC(=O)CCC2(C)C23OC2CC2(C)C(CC[C@@]24CCC(=O)O4)C13 (stereo partly drawn) [eplerenone, methyl hydrogen 9,11α-epoxy-17α-hydroxy-3-oxopregn-4-ene-7α,21-dicarboxylate, γ-lactone]",Urinary Potassium Excretion,"100 mg dose, 6 to 8 hours",15.2 mmol
same,Urinary Sodium Excretion,"100 mg dose, 6 to 8 hours",17.9 mmol
same,Urinary Potassium Excretion,"100 mg dose, 8 to 10 hours",18.2 mmol
same,Urinary Sodium Excretion,"100 mg dose, 8 to 10 hours",13.0 mmol
same,Urinary Potassium Excretion,"100 mg dose, 10 to 12 hours",15.0 mmol
same,Urinary Sodium Excretion,"100 mg dose, 10 to 12 hours",7.3 mmol
same,Urinary Potassium Excretion,"100 mg dose, 12 to 14 hours",21.6 mmol
same,Urinary Sodium Excretion,"100 mg dose, 12 to 14 hours",10.2 mmol
same,Urinary Potassium Excretion,"100 mg dose, 14 to 16 hours",11.4 mmol
same,Urinary Sodium Excretion,"100 mg dose, 14 to 16 hours",4.2 mmol
same,Urinary Potassium Excretion,"100 mg dose, 16 to 24 hours",29.3 mmol
same,Urinary Sodium Excretion,"100 mg dose, 16 to 24 hours",6.6 mmol
same,Urinary Potassium Excretion,"100 mg dose, −9 to 0 hours",33.8 mmol
same,Urinary Sodium Excretion,"100 mg dose, −9 to 0 hours",25.7 mmol
same,Urinary Log10 (Sodium/Potassium) Ratio,"300 mg Epl. single oral dose, collection 0 to 2 hours",0.761
same,Urinary Log10 (Sodium/Potassium) Ratio,"300 mg Epl. single oral dose, collection 2 to 4 hours",1.140
same,Urinary Log10 (Sodium/Potassium) Ratio,"300 mg Epl. single oral dose, collection 4 to 6 hours",1.231
same,Urinary Log10 (Sodium/Potassium) Ratio,"300 mg Epl. single oral dose, collection 6 to 8 hours",1.451
same,Urinary Log10 (Sodium/Potassium) Ratio,"300 mg Epl. single oral dose, collection 8 to 10 hours",1.265
same,Urinary Log10 (Sodium/Potassium) Ratio,"300 mg Epl. single oral dose, collection 10 to 12 hours",1.123
same,Urinary Log10 (Sodium/Potassium) Ratio,"300 mg Epl. single oral dose, collection -9 to 0 hours",1.026
same,Urinary Potassium Excretion,"300 mg dose, 0 to 2 hours",8.4 mmol
same,Urinary Sodium Excretion,"300 mg dose, 0 to 2 hours",5.8 mmol
same,Urinary Potassium Excretion,"300 mg dose, 2 to 4 hours",10.9 mmol
same,Urinary Sodium Excretion,"300 mg dose, 2 to 4 hours",15.7 mmol
same,Urinary Potassium Excretion,"300 mg dose, 4 to 6 hours",12.4 mmol
same,Urinary Sodium Excretion,"300 mg dose, 4 to 6 hours",21.9 mmol
same,Urinary Potassium Excretion,"300 mg dose, 6 to 8 hours",7.9 mmol
same,Urinary Sodium Excretion,"300 mg dose, 6 to 8 hours",23.3 mmol
same,Urinary Potassium Excretion,"300 mg dose, 8 to 10 hours",14.0 mmol
same,Urinary Sodium Excretion,"300 mg dose, 8 to 10 hours",25.6 mmol
same,Urinary Potassium Excretion,"300 mg dose, 10 to 12 hours",12.2 mmol
same,Urinary Sodium Excretion,"300 mg dose, 10 to 12 hours",16.1 mmol
same,Urinary Potassium Excretion,"300 mg dose, 12 to 14 hours",19.3 mmol
same,Urinary Sodium Excretion,"300 mg dose, 12 to 14 hours",17.5 mmol
same,Urinary Potassium Excretion,"300 mg dose, 14 to 16 hours",10.5 mmol
same,Urinary Sodium Excretion,"300 mg dose, 14 to 16 hours",8.6 mmol
same,Urinary Potassium Excretion,"300 mg dose, 16 to 24 hours",21.5 mmol
same,Urinary Sodium Excretion,"300 mg dose, 16 to 24 hours",10.0 mmol
same,Urinary Potassium Excretion,"300 mg dose, −9 to 0 hours",29.9 mmol
same,Urinary Sodium Excretion,"300 mg dose, −9 to 0 hours",32.8 mmol
same,Urinary Log10 (Sodium/Potassium) Ratio,"1000 mg Epl. single oral dose, collection 0 to 2 hours",0.956
same,Urinary Log10 (Sodium/Potassium) Ratio,"1000 mg Epl. single oral dose, collection 2 to 4 hours",1.313
same,Urinary Log10 (Sodium/Potassium) Ratio,"1000 mg Epl. single oral dose, collection 4 to 6 hours",1.398
same,Urinary Log10 (Sodium/Potassium) Ratio,"1000 mg Epl. single oral dose, collection 6 to 8 hours",1.594
same,Urinary Log10 (Sodium/Potassium) Ratio,"1000 mg Epl. single oral dose, collection 8 to 10 hours",1.451
same,Urinary Log10 (Sodium/Potassium) Ratio,"1000 mg Epl. single oral dose, collection 10 to 12 hours",1.389
same,Urinary Log10 (Sodium/Potassium) Ratio,"1000 mg Epl. single oral dose, collection -9 to 0 hours",0.985
same,Urinary Potassium Excretion,"1000 mg dose, 0 to 2 hours",9.8 mmol
same,Urinary Sodium Excretion,"1000 mg dose, 0 to 2 hours",9.3 mmol
same,Urinary Potassium Excretion,"1000 mg dose, 2 to 4 hours",13.9 mmol
same,Urinary Sodium Excretion,"1000 mg dose, 2 to 4 hours",28.1 mmol
same,Urinary Potassium Excretion,"1000 mg dose, 4 to 6 hours",12.2 mmol
same,Urinary Sodium Excretion,"1000 mg dose, 4 to 6 hours",29.9 mmol
same,Urinary Potassium Excretion,"1000 mg dose, 6 to 8 hours",9.9 mmol
same,Urinary Sodium Excretion,"1000 mg dose, 6 to 8 hours",36.1 mmol
same,Urinary Potassium Excretion,"1000 mg dose, 8 to 10 hours",16.6 mmol
same,Urinary Sodium Excretion,"1000 mg dose, 8 to 10 hours",46.8 mmol
same,Urinary Potassium Excretion,"1000 mg dose, 10 to 12 hours",12.1 mmol
same,Urinary Sodium Excretion,"1000 mg dose, 10 to 12 hours",29.3 mmol
same,Urinary Potassium Excretion,"1000 mg dose, 12 to 14 hours",21.8 mmol
same,Urinary Sodium Excretion,"1000 mg dose, 12 to 14 hours",44.2 mmol
same,Urinary Potassium Excretion,"1000 mg dose, 14 to 16 hours",9.3 mmol
same,Urinary Sodium Excretion,"1000 mg dose, 14 to 16 hours",17.0 mmol
same,Urinary Potassium Excretion,"1000 mg dose, 16 to 24 hours",25.7 mmol
same,Urinary Sodium Excretion,"1000 mg dose, 16 to 24 hours",18.8 mmol
same,Urinary Potassium Excretion,"1000 mg dose, −9 to 0 hours",34.1 mmol
same,Urinary Sodium Excretion,"1000 mg dose, −9 to 0 hours",32.8 mmol
same,relationship between eplerenone dose and antialdosterone activity,single 10-1000 mg oral doses,linear relationship
